# Source: patent US20260226035A1, “THIOCHROMAN DERIVATIVE AND PREPARATION METHOD THEREFOR AND USE THEREOF” (SHANGHAI INSTITUTE OF MATERIA MEDICA, CHINESE ACADEMY OF …, priority 2022, published 2026)
# Read-outs that look alike come from different tables or passages of the source.
# Columns and labels:
# [1] = tested on: MCF-7 cells; assay: Inhibition of MCF-7 cell proliferation (CTG/ATP method); format: cell-based; details: for IC50: Homo sapiens, MCF7, 144 h, read-out: IC50 (nM), inhibitory activity on MCF-7 cell proliferation; for anti-tumor activity, times higher than SAR439859 / anti-tumor activity, times higher than fulvestrant: MCF-7 proliferation; for anti-tumor activity, times higher than SAR439859: vs SAR439859; for anti-tumor activity, times higher than fulvestrant: vs fulvestrant
# Experimental: The purpose of this experiment is to determine the in vitro proliferation inhibitory effect of the compounds of the present invention on the commonly used breast cancer estrogen receptor-positive cells, MCF-7 cells, and to evaluate the in vitro activity of the compounds based on IC50. The inhibitory effect of the compounds of the present invention on the proliferation of MCF-7 cells was tested by the ATP method, specifically the CTG method. CellTiter-Glo, referred to as CTG, is a rapid homogenous detection method for determining the number of viable cells in culture by quantifying ATP. ATP is a key indicator of the metabolism of living cells. The homogenous detection makes the cell lysis and the generated luminescent signal proportional to the amount of ATP present, and the amount of ATP is directly proportional to the number of cells in the culture. The specific experimental method is as follows. […] The cells were cultured in a 37° C. incubator under 5% CO2. Cell passaging, recovery and cryopreservation were performed according to conventional methods. […] On the second day, the drug with concentration gradient was added, 10 μL per well. […] The 96-well plate was incubated in 5% CO2 at 37° C. for 6 days. 50 μL of CTG reagent was added to each well of the 96-well plate, and the plate was shaken on a shaker for 5 min, and then left at room temperature and protected from light for 10 min. 60 μL of CTG reagent was transferred to the 384-well Opti-plate. The luminescence signals were read by a multifunctional enzyme marker, and the signal intensity was used to characterize the number of viable cells. The data of each dosing group were normalized to 100% of the mean value of the control group, and the data were processed and analyzed by GraphPad Prism software.
# [2] = molecular target: ERα of uterine tissue (Rattus norvegicus, UniProt P06211); details: in vivo, po
# ERα of uterine tissue, sequence (P06211 whole entry): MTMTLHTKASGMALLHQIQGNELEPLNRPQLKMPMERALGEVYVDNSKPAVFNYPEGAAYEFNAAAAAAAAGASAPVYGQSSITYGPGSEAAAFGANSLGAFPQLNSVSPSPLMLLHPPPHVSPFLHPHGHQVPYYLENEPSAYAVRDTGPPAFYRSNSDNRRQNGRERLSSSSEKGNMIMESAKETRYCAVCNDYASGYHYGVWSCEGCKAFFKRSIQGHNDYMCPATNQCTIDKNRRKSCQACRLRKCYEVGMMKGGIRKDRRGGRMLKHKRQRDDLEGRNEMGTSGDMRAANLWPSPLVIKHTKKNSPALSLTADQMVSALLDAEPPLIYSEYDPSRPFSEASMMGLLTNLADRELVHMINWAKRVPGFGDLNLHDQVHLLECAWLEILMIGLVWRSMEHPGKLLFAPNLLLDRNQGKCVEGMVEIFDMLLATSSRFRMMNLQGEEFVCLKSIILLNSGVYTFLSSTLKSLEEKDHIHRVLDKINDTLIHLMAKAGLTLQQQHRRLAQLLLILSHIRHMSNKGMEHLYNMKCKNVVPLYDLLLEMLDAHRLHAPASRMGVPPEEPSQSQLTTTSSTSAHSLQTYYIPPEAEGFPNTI
# Experimental: HE experiment: 1) Cut the fixed uterine tissue into […] slices and place the slices in an oven for 1 hour; 2) Dewax the dried paraffin slices with conventional xylene, hydrate with gradient ethanol, and wash with distilled water; 3) Add hematoxylin to stain for 10 min to 30 min, then wash away the hematoxylin stain with running water; 4) Decolorize with 1% hydrochloric acid ethanol until the slices turn red and lighter in color, and then put them in running water to restore them to blue.
# [3] = tested on: MCF-7 mouse subcutaneous tumor model; assay: Growth inhibition in MCF-7 mouse subcutaneous tumor model; format: in vivo, mice; details: p.o., QD; for mean tumour volume (mm^3), 21 days / TGI(%): 21 days; for TGI(%): LSZ102 15 mg/kg, Example 4 5 mg/kg
# Text: Experimental reagents: fetal bovine serum (SH30070.03) (FBS, Hyclone, Logan, UT, USA); penicillin ([…]) (Sigma, St. Louis, MO, USA); streptomycin (85886) (Sigma, St. Louis, MO, USA); recombinant human insulin (91077C) (Sigma, St. Louis, MO, USA); EMEM medium (30-2003) (ATCC, Rockville, MD, USA); trypsin (15090046) (Gibco, Grand Island, NY, USA); HBSS ([…]), DMSO (D8418), PEG400 (8074851000), PEG300 (8074841000), PBS (806552), Solutol HS-15 (42966) (Sigma, St. Louis, MO, USA); Matrigel Matrix (BD Bioscience, USA); estrogen pellets (0.36 mg estradiol, 60-day release) (SE-121) (Innovative Research of America, Florida, USA); […] StarSignal Western Protein Marker (10-200 kDa) (M227-01) (GenStar, Beijing, China); Ponceau red, Tween 20, acrylamide, sodium dodecyl sulfate, PMSF (Solon, OH, USA); protein blotting membrane regeneration solution (ZN1923, Biolab, Beijing, China); protein lysis buffer (RIPA), 1.5 mol/L Tris HCl (pH 6.8), 1.5 mol/L Tris HCl (pH 8.8) (Beyotime, Shanghai, China); ECL luminescent solution (Thermo Fisher Scientific, Pittsburgh, PA, USA); […] Goat Anti-Rabbit IgG H&L (HRP) (ab6721) purchased from Abcam (Abcam, Cambridge, UK). […] Cell culture conditions: […] When the cells were fused to 90%, the old medium was discarded, and the cells were washed twice with 2 ml PBS. […] When the cells became round, 2 ml complete medium was quickly added to terminate digestion, and the cells were gently blown and collected, and centrifuged at 800 rpm, 4° C. for 5 min. The supernatant was discarded, the cells were resuspended with complete medium, cultured in bottles, and the medium was changed every other day. […] LSZ102 (15 mg/kg) group: […] LSZ-102 is a selective estrogen receptor degrader developed by Novartis in the clinical research stage and is one of the earliest oral SERDs to enter clinical research; […] The tumor inhibition efficacy of the compound was evaluated by tumor growth inhibition rate TGI (%).
# [4] = tested on: MCF-7 Tam1 cells; assay: Inhibition of tamoxifen-resistant MCF-7 Tam1 cell proliferation (CTG); format: cell-based; details: Homo sapiens, MCF7:TAM1, 120 h, read-out: IC50 (nM), inhibitory activity on tamoxifen-resistant cells MCF-7 Tam1
# [5] = in vivo; details: female, Sprague-Dawley (SD), rat, po, 10 mg/kg
# [6] = Pharmacokinetics in rats, oral; format: in vivo, SD rats; details: rat, 10 mg/kg
# Experimental: The purpose of this experiment is to test the pharmacokinetic properties of the compounds of the present invention in rats.
# The solvent is 5% DMSO+5% Solutol+90% (0.5% MC), which is a colorless and clear dosing solution. The dosing method and dosage are: oral, 10 mg/kg. SD rats were randomly divided into groups according to body weight, fasted but not watered for 12-14 hours one day before dosing, and fed 4 hours after dosing. 0.1 mL of blood was collected from each animal through the eye socket each time, anticoagulated with EDTAK2, and the collection time points were: 0, 5, 15, 30 minutes, 1, 2, 4, 6, 8, 24 hours after administration of the test compound. After blood sample collection, it was placed on ice and centrifuged within 30 minutes to separate plasma (centrifugation conditions: 5000 rpm, 10 minutes, 4° C.). It was stored at −80° C. before analysis. The concentration of compounds in rat plasma was determined by LC-MS/MS. The data acquisition and control system software was Analyst 1.5.1 software (Applied Biosystem). The peak integration method of the chromatogram sample was automatic integration; the ratio of the sample peak area to the internal standard peak area was used as an indicator and regressed with the concentration of the sample. Regression method: linear regression, weight coefficient is 1/X^2. Pharmacokinetic parameters were analyzed and processed by WinNonlin Professional v6.3 (Pharsight, USA) using non-compartmental model. Cmax is the maximum measured blood drug concentration, the area under the blood drug concentration-time curve AUC (0→t) was calculated by the trapezoidal method, and Tmax is the time when the blood drug concentration reaches the peak after administration. Experimental data are expressed as “mean±standard deviation” (Mean±SD, n≥3) or “mean” (Mean, n=2).
molecule,measurement,setting,value
"COc1cc(F)ccc1C1CSc2cc(B(O)O)ccc2C1c1ccc(OCCN2CC(CF)C2)cc1 (stereo not drawn) [Example 10, Cis-(3-(4-fluoro-2-methoxyphenyl)-4-(4-(2-(3-(fluoromethyl)azetidin-1-yl)ethoxy)phenyl)thiochroman-7-boronic Acid]",IC50,"[1]; MCF-7, CTG, 6 days",1.7 nM
4-hydroxytamoxifen,Mean body weight,[2],43.9 g
"O=C(O)c1ccc2c(c1)CCCC(c1ccc(Cl)cc1Cl)=C2c1ccc(O[C@H]2CCN(CCCF)C2)cc1 [SAR439859, reference compound]",IC50,[1],3.9 nM
"C[C@]12CC[C@@H]3c4ccc(O)cc4C[C@@H](CCCCCCCCC[S+]([O-])CCCC(F)(F)C(F)(F)F)[C@H]3[C@@H]1CC[C@@H]2O (stereo partly drawn) [Fulvestrant, reference compound]",IC50,[1],1.9 nM
"COc1cc(F)ccc1[C@@H]1CSc2cc(O)ccc2[C@@H]1c1ccc(OCCN2CC(CF)C2)cc1 (relative stereo) [Example 4, Cis-3-(4-fluoro-2-methoxyphenyl)-4-(4-(2-(3-(fluoromethyl)azetidin-1-yl)ethoxy)phenyl)-7-hydroxythiochroman]","mean tumour volume (mm^3), 0 day",[3],202 mm^3
same,"mean tumour volume (mm^3), 21 days",[3],332 mm^3
same,TGI(%),[3],78%
same,IC50,[4],6.84 ± 1.4 nM
"CC(F)(F)c1cc(F)ccc1-c1sc2cc(O)ccc2c1Oc1ccc(/C=C/C(=O)O)cc1 [LSZ102, reference compound]","mean tumour volume (mm^3), 0 day",[3],200 mm^3
same,"mean tumour volume (mm^3), 21 days",[3],345 mm^3
same,TGI(%),[3],75%
"COc1cc(F)ccc1[C@H]1CSc2cc(O)ccc2[C@H]1c1ccc(OCCN2CC(CF)C2)cc1 [Example 18, (3S,4R)-3-(4-fluoro-2-methoxyphenyl)-4-(4-(2-(3-(fluoromethyl)azetidin-1-yl)ethoxy)phenyl-)7-hydroxythiochroman]",concentration at 4 h,[5]; brain,17400 ng/g
same,Kp at 4 h,[5]; brain/plasma,14.1
same,concentration at 4 h,[5]; plasma,1230 ng/mL
same,Tmax,"[6]; Sprague-Dawley (SD), plasma",3 h
same,half-life,"[6]; Sprague-Dawley (SD), plasma",8.92 h
same,MRTPO,[6],13.4 h
same,AUC0-t,[6]; plasma,1365 ng·h/mL
same,Cmax,[6]; plasma,198 ng/mL
same,IC50,[4],5.37 ± 0.42 nM
same,"anti-tumor activity, times higher than SAR439859",[1],15.6 times
same,"anti-tumor activity, times higher than fulvestrant",[1],7.6 times
"Oc1ccc2c(c1)SC[C@H](c1cc(F)c(F)cc1F)[C@@H]2c1ccc(OCCN2CC(CF)C2)cc1 [Example 19, (3S,4R)-4-(4-(2-(3-(fluoromethyl)azetidin-1-yl)ethoxy)phenyl)-3-(2,4,5-trifluorophenyl)-7-hydroxythiochroman]","anti-tumor activity, times higher than SAR439859",[1],15.6 times
same,"anti-tumor activity, times higher than fulvestrant",[1],7.6 times
